Laboratory results as given in US12440496B2, “Natriuretic peptide receptor a agonists useful for the treatment of cardiometabolic diseases, kidney disease and diabetes” (Merck Sharp & Dohme LLC, priority 2019, dated 2025).

Molecular target: T1, hNPRA (Homo sapiens, UniProt P16066)
T1 construct: expressed in transfected cells
T1 sequence (P16066 33-1061): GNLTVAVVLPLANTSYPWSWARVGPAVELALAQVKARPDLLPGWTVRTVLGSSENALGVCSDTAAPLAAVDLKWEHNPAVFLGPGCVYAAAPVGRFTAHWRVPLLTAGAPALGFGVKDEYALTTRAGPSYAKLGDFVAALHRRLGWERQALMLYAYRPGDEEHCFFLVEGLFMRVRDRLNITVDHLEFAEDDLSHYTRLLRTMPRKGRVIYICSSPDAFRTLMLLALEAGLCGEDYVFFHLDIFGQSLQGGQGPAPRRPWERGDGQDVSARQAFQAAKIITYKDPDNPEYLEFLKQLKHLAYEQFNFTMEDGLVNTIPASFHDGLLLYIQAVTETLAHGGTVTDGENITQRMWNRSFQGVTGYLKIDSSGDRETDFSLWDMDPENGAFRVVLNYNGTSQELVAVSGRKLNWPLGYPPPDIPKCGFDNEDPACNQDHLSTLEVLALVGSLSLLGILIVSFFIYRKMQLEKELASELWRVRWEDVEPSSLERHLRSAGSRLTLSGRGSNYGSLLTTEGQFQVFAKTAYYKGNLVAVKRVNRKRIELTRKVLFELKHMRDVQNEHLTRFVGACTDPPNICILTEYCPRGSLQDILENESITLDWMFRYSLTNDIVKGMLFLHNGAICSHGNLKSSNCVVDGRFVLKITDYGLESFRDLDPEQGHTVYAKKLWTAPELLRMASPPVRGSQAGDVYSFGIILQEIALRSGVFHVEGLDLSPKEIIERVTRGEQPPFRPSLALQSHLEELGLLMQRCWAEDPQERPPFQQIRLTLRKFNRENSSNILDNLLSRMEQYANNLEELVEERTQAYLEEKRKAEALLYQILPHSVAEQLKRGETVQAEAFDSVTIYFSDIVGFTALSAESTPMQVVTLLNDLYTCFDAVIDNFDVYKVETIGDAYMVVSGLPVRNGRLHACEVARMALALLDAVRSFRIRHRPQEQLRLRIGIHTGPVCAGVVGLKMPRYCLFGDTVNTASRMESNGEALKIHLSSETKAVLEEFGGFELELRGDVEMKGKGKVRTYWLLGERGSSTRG
Assay: NPRA Functional Cell Assay (cGMP HTRF, NPRA HEK JumpIn stable cells)
Type: cell-based
Details: cGMP production, 1 hour at 37° C., 10-point dose response
How it was run: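 cGMP HTRF read-out after 1 hour compound treatment at 37° C. of human NPRA-expressing HEK JumpIn cells, 1500 cells/well, in buffer with phosphodiesterase inhibitors IBMX and RO20 (100 uM each). Signal converted to [cGMP] by calibration curve; EC50s fitted by 4-parameter logistic; 50 nM h-ANP as positive response.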

SMILES	EC50 [nM]
COCCN(C)CC[C@@H](NC(=O)c1nc2cc3c(nc2s1)CC[C@H](C(C)(C)C)C3)c1ccc(NS(=O)(=O)N(C)C)nc1 (racemic) [Example 210, 2-methoxyethyl-methyl-[rac-(3R)-3-[6-(dimethylsulfamoylamino)-3-pyridyl]-3-[rac-(7S)-7-tert-butyl-5,6,7,8-tetrahydrothiazolo[5,4-b]quinoline-2-carbonyl]amino]propyl]ammonium; 2,2,2-trifluoroacetate]	764
CC(C)(C)[C@H]1CCc2nc3sc(C(=O)N[C@H](CCN4CCC(C(=O)O)CC4)c4cccc(C(=O)NC5CN(Cc6ccccc6)C5)c4)nc3cc2C1 (racemic) [Example 123, 1-[rac-(3R)-3-[3-{(1-benzylazetidin-3-yl)carbamoyl]phenyl]-3-[[rac-(7S)-7-tert-butyl-5,6,7,8-tetrahydrothiazolo [5,4-b]quinoline-2-carbonyl]amino]propyl] piperidin-1-ium-4-carboxylic acid; 2,2,2-trifluoroacetate]	657
CC(C)(C)[C@H]1CCc2nc3sc(C(=O)N[C@H](CCNC4(CO)CCC4)c4cccc(NS(C)(=O)=O)c4)cc3cc2C1 (racemic) [Example 15, ammonium; methylsulfonyl-1-[3-[rac-(1R)-3-[[1-(hydroxymethyl)cyclobutyl]amino]-1-[[rac-(6S)-6-tert-butyl-5,6,7,8-tetrahydrothieno[2,3-b]quinoline-2-carbonyl]amino]propyl]phenyl] azanide]	942
CC(C)(C)[C@H]1CCc2nc3sc(C(=O)N[C@H](CCN4C[C@@H](O)[C@H](O)C4)c4ccc(-c5ccc(=O)[nH]c5)cc4)cc3cc2C1 (racemic) [Example 51, rac-(6S)-6-tert-butyl-N-[rac-(1R)-1-[4-(6-oxo-1H-pyridin-3-yl)phenyl]-3-[rac-(3R,4R)-3,4-dihydroxypyrrolidin-1-ium-1-yl]propyl]-5,6,7,8-tetrahydrothieno[2,3-b]quinoline-2-carboxamide;formate]	705
CN1CC(NC(=O)c2cccc([C@@H](CCN3CCC(CC(=O)O)CC3)NC(=O)c3nc4cc5c(nc4s3)CC[C@H](C(C)(C)C)C5)c2)C1 (racemic) [Example 101, 2-[1-[rac-(3R)-3-[3-[(1-methylazetidin-1-ium-3-yl)carbamoyl]phenyl]-3-[[rac-(7S)-7-tert-butyl-5,6,7,8-tetrahydrothiazolo [5,4-b]quinoline-2-carbonyl]amino]propyl]-4-piperidyl]acetic acid; 2,2,2-trifluoroacetate]	146
CN(CC[C@@H](NC(=O)c1nc2cc3c(nc2s1)CC[C@H](C(C)(C)C)C3)c1ccc(NS(=O)(=O)N(C)C)nc1)Cc1ccn[nH]1 (racemic) [Example 214, methyl-(1H-pyrazol-5-ylmethyl)-[rac-(3R)-3-[6-(dimethylsulfamoylamino)-3-pyridyl]-3-[rac-(7S)-7-tert-butyl-5,6,7,8-tetrahydrothiazolo[5,4-b]quinoline-2-carbonyl]amino]propyl]ammonium; 2,2,2-trifluoroacetate]	1240

Other lines, results leading:

EC50 [nM]	SMILES
641	Cc1nn(-c2ccc([C@@H](CCN3CCC(O)CC3)NC(=O)c3nc4cc5c(nc4s3)CC[C@H](C(C)(C)C)C5)cn2)c(C)c1O (racemic) [Example 187, ammonium; 3,5-dimethyl-1-[5-[rac-(1R)-3-(4-hydroxy-1-piperidyl)-1-[[rac-(7S)-7-tert-butyl-5,6,7,8-tetrahydrothiazolo[5,4-b]quinoline-2-carbonyl]amino]propyl]-2-pyridyl]pyrazol-4-olate]
455	CC(C)(C)[C@H]1CCc2nc3sc(C(=O)N[C@H](CCN4CCCCC4CO)c4ccc(-c5ccc(=O)[nH]c5)cc4)cc3cc2C1 (mixture of isomers) [Example 30, rac-(6S)-6-tert-butyl-N-[rac-(1R)-3-[2-(hydroxymethyl)piperidin-1-ium-1-yl]-1-[4-(6-oxo-1H-pyridin-3-yl)phenyl]propyl]-5,6,7,8-tetrahydrothieno[2,3-b]quinoline-2-carboxamide;formate]
1030	CC(C)(C)[C@H]1CCc2nc3sc(C(=O)N[C@H](CCN4CCC(O)CC4)c4ccc(-c5cnoc5)cc4)nc3cc2C1 (racemic) [Example 176, rac-(7S)-7-tert-butyl-N-[rac-(1R)-3-(4-hydroxypiperidin-1-ium-1-yl)-1-(4-isoxazol-4-ylphenyl)propyl]-5,6,7,8-tetrahydrothiazolo[5,4-b]quinoline-2-carboxamide; 2,2,2-trifluoroacetate]
518	CC(C)(C)[C@H]1CCc2nc3sc(C(=O)N[C@H](CCN4CCCCC4)c4ccc(-c5cnc(=O)[nH]c5)cc4)cc3cc2C1 (racemic) [Example 2, rac-(6S)-6-tert-butyl-N-[rac-(1R)-1-[4-(2-oxo-1H-pyrimidin-5-yl)phenyl]-3-(1-piperidyl)propyl]-5,6,7,8-tetrahydrothieno[2,3-b]quinoline-2-carboxamide]
